The record followed here is patent US6900891B2, “Optical sensors for the detection of nitric oxide” (The Regents of the University of Michigan, priority 1999, dated 2005).

The subject of this assay is macrophages derived from BALB/c mice. The experiment in a line: Extracellular nitric oxide released by macrophages, measured with fiber sensors. The class given is cell-based. The conditions noted are these: FIG. 19; macrophages treated with LPS and INF-γ and inhibited with 1 mM inhibitor.

Experimental: Specifically, said sensors were placed in solution, approximately 0.5 cm from the macrophages.
In one embodiment, the above referenced sensors were used to quantify nitric oxide production by macrophages derived from BALB/c mice. […] Some macrophages were activated by overnight incubation with medium containing 100 U/mL IFN-γ enzyme Corp., Cambridge, Mass.) and 100 ng/mL LPS (List Biological Labs, Inc., Campbell, Calif.). In addition, to activation with IFN-γ and LPS, some cells were also treated with NMMA, (Sigma) to inhibit the production of nitric oxide. Prior to nitric oxide determinations, the macrophages were removed from incubation. For inactivated macrophages, the medium was exchanged for 2 mL Ringer's buffer. […] During measurements, the cells were kept at ambient temperature (25° C.) and 7.5 mg/mL propidium iodide was used to ascertain the degree of cell viability.
In another embodiment, macrophages were derived from the tibia and femur bone marrow of Harlan Sprague-Dawley BALB/c mice were cultured and plated by methods similar to previously published methods. For extracellular measurements with fiber sensors the cells where plated at a density of 2×10^5 on 25 mm coverslips, while those to be used for scrape-loading were plated onto 35 mm petri dishes (Nunc) at a density of 2×10^6. […]

As for `CNC(=N)NCCC[C@H](N)C(=O)O` [Nω-monomethyl-L-arginine, N^ω-monomethyl-L-arginine], the “[NO]” value amounted to 20 µM.
